Measured values from paper PMC7532663, “Pharmacological inhibition of mTORC1 increases CCKBR-specific tumor uptake of radiolabeled minigastrin analogue [^177Lu]Lu-PP-F11N” (Theranostics, 2020).

What was measured:
A431/CCKBR cells [1] = assay: Kinase inhibitor library screen: [177Lu]Lu-PP-F11N cell uptake; type: cell-based, human; conditions: ratio treatment/control; 10 μM inhibitor
A431/CCKBR cells [2] = assay: CellTiter 96 AQueous (MTS) proliferation assay; type: cell-based, human; conditions: for Proliferation [A570]: 10 μM kinase inhibitor, MTS absorbance at 570 nm, reference 650 nm, mean of triplicate; for Proliferation (ratio): ratio treatment/control, 10 μM inhibitor
A431/CCKBR cells [3] = assay: Total protein concentration of cell lysates; type: cell-based, human
Description: […]. […] […].

[4] = tested on: mTORC1-regulated phosphorylation of the ribosomal protein S6 at Ser235/236; assay: WB analysis of phospho-S6; type: cell-based, human; conditions: A431/CCKBR cells, 100 nM RAD001 or 10 mM metformin
Procedure: Antibodies against phospho-S6 at S235/S236 (D57.2.2F), ERK1/2 (9102), phospho-ERK1/2 (T202/Y204), GAPDH (14C10) and HA-Tag (C29F4) were obtained from Cell Signaling Technology, whereas the anti-CCKBR (ab77077) was from Abcam. Cells were homogenized in lysis buffer (50 mM Tris-HCl pH 7.5, 150 mM NaCl, 1% Triton X, 0.1% SDS supplemented with 1 mM sodium orthovanadate, 1 mM NaF and protease inhibitor cocktail (Roche)). 50 μg of total protein lysates were separated by SDS-PAGE and transferred to PVDF membranes (Millipore) by electroblotting. Membranes were blocked with 5% skim milk in TBST (0.1% Tween 20) for 1 h, and incubated with 2% BSA in TBST overnight with the primary antibody followed by 2 h incubation with HRP-conjugated secondary antibody. Signals were produced by using a chemiluminescence reagent (ECL) and acquired by ImageQuant RT ECL Imager (GE Healthcare). Prior to CCKBR detection by WB, protein lysates were subjected to deglycosylation. Briefly, 18 μL of total protein lysates (50 µg) were mixed with 2 μL of 10× denaturing buffer (5% SDS, 0.4 M DTT) and incubated for 10 min at RT. Next, 4 μL of 10× Glycobuffer (0.5 M sodium phosphate, pH 7.5), 4 μL of 10% Tween-20 and 10 μL of water were added. Finally, 2 μL of PNGase F (Sigma) was added and the reaction was carried out for 16 h at 37°C.

[5] = tested on: A431/CCKBR-tumor bearing nude mice; assay: Tumor volume, mouse weight and toxicity during treatment; type: in vivo
A431/CCKBR tumors = assay: HE staining and immunohistochemistry of tumor sections; type: in vivo, mouse
Procedure: Formalin-fixed, paraffin tumor sections were deparaffinized, rehydrated and pretreated in 10 mM citrate buffer, pH 6.0, at 98 °C for 60 minutes, followed by incubation with 4% fat-free milk in PBS for 90 minutes. For avidin/biotin blocker treatment (Invitrogen) and detection, the ABC method was used. For monoclonal antibody against Ki67 (SP6, Thermo Scientific) and CD34 (cloneQBend/10; Dako) signals were recorded using an automated instrument reagent system (Discovery XT, Ventana Medical System Inc.). Images of hematoxylin-counterstained sections were captured (Nikon, YTHM) and analyzed using ImageAccess Enterprise7 and ImageJ software. Tumor necrotic areas and vascularization were analyzed in 10 (RAD001 and PBS) and 8 (metformin) images, whereas Ki67 and mitotic index in 15 (RAD001 and PBS) and 12 (metformin) images.

A431/CCKBR cells [6] = conditions: 100 nM RAD001 or 10 mM metformin
Procedure: Radioactive medium (and PBS wash) was collected and the cells were washed 2× with glycine buffer (pH=2) for 5 min at RT followed by a dissolving step in 1 M NaOH for 15 min at 37°C. All 3 fractions (medium/PBS; glycine; dissolved cells) were measured on Cobra II Auto-Gamma counter (Packard). For the cell uptake analysis, the PBS-washed cells were directly dissolved in 1M NaOH, or combined glycine-wash and 1M NaOH dissolved cells, were measured on the Gamma counter. […] Protein concentration of cell lysates was measured by using NanoPhotometer® UV-Vis P-Class (Implen).

[7] = tested on: A431/CCKBR-tumor bearing nude mice; conditions: three doses of metformin or one RAD001 dose

SMILES: O=C(O)c1ccc2nc(-c3ccccc3)c(-c3ccccc3)nc2c1 [BML-257]
- Uptake (ratio) (A431/CCKBR cells [1]): 1.26
- Proliferation [A570] (A431/CCKBR cells [2]): 0.95
- Proliferation (ratio) (A431/CCKBR cells [2]): 0.98

SMILES: CO[C@H]1C[C@@H]2CC[C@@H](C)[C@@](O)(O2)C(=O)C(=O)N2CCCC[C@H]2C(=O)O[C@H]([C@H](C)C[C@@H]2CC[C@@H](O)[C@H](OC)C2)CC(=O)[C@H](C)/C=C(\C)[C@@H](O)[C@@H](OC)C(=O)[C@H](C)C[C@H](C)/C=C/C=C/C=C/1C [Rapamycin]
- Uptake (ratio) (A431/CCKBR cells [1]): 1.24
- Proliferation [A570] (A431/CCKBR cells [2]): 0.91
- Proliferation (ratio) (A431/CCKBR cells [2]): 0.94
- decrease of total protein level (A431/CCKBR cells [3]; 10 µM, lysates of validation experiment): 26%

SMILES: CN(C)C(=N)N=C(N)N [Metformin, metformin]
- total protein level compared to control (A431/CCKBR cells [3]; 100 nM RAD001 or 10 mM metformin, 20 h): 80%
- phosphorylation of S6 at Ser235/236 (WB) [4]: lack of mTORC1-regulated phosphorylation
- mouse weight ([5]; 3 daily doses): no effects
- tumor volume ([5]; 3 daily doses): no effects
- mouse weight ([5]; 5 days daily treatment): no effects
- tumor volume ([5]; 5 days daily treatment): no effects
- mitotic index (A431/CCKBR tumors; 5 days treatment, mean ± SD): did not cause a significant change
- tumor vascularization (A431/CCKBR tumors; HE and CD34, five-day treatment): No significant difference
- necrosis (necrotic area) (A431/CCKBR tumors; HE stain, 5 days treatment, mean ± SD): did not show a significant difference
- Ki67 positive cells (A431/CCKBR tumors; IHC, 5 days treatment, mean ± SD): did not cause a significant change
- internalization ratio [treatment/control] (A431/CCKBR cells [6]; 20 h): 1.3
- [177Lu]Lu-PP-F11N internalization in treated cells (A431/CCKBR cells [6]; 20 h treatment, 0.3 pmol radioligand 1 h, triplicate): 21.1%
- influence on [177Lu]Lu-PP-F11N tumor uptake [7]: only moderately and did not reach statistical significance
